Measurements: PMC6812009, “Covalent Aurora A regulation by the metabolic integrator coenzyme A” (Redox Biology, 2019)

Key:
Assay in all cases: Kinase profiling screen (radioactive filter-binding assay)
Format in all cases: biochemical
EPH-B4 = target: T1, EPH-B4 (Homo sapiens, UniProt P54760); details: 100 μM compound, 50 μM ATP; read-out: Kinase activity, % of activity in the absence of inhibitor
T1 sequence (P54760 16-987): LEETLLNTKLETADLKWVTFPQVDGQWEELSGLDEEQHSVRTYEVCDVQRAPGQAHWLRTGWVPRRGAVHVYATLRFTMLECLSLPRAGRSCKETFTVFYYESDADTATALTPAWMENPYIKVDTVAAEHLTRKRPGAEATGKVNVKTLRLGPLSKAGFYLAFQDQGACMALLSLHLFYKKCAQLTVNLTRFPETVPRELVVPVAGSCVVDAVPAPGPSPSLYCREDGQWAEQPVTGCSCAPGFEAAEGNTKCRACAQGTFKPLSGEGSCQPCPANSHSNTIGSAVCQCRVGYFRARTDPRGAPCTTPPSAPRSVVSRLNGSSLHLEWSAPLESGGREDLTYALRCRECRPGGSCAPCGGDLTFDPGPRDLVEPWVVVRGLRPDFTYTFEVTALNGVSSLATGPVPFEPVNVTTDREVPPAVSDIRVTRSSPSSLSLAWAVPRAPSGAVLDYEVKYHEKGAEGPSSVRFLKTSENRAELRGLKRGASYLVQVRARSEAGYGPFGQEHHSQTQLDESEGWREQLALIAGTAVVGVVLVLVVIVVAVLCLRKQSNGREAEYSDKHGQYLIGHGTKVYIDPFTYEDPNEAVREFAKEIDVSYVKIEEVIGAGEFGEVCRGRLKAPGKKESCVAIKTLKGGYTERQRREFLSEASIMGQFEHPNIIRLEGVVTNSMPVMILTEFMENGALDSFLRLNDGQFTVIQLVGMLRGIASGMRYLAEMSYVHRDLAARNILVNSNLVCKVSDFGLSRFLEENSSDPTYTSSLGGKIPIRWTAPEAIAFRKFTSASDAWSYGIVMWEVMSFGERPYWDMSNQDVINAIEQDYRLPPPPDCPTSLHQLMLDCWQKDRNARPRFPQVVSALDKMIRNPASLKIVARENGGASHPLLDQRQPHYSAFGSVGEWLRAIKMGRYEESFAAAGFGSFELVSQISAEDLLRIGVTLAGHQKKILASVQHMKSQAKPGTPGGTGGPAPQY
Procedure, shortened: (§1)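 Across 117 protein kinases, duplicate in vitro measurements were made with CoA, dpCoA and ADP present at 100 μM final. Each reaction used recombinant kinase, a model substrate and an optimal concentration of ATP.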

JAK2 = JAK2 (Homo sapiens, UniProt O60674); details: 100 μM compound, 5 μM ATP; read-out: Kinase activity, % of activity in the absence of inhibitor
JAK2, sequence (O60674 whole entry): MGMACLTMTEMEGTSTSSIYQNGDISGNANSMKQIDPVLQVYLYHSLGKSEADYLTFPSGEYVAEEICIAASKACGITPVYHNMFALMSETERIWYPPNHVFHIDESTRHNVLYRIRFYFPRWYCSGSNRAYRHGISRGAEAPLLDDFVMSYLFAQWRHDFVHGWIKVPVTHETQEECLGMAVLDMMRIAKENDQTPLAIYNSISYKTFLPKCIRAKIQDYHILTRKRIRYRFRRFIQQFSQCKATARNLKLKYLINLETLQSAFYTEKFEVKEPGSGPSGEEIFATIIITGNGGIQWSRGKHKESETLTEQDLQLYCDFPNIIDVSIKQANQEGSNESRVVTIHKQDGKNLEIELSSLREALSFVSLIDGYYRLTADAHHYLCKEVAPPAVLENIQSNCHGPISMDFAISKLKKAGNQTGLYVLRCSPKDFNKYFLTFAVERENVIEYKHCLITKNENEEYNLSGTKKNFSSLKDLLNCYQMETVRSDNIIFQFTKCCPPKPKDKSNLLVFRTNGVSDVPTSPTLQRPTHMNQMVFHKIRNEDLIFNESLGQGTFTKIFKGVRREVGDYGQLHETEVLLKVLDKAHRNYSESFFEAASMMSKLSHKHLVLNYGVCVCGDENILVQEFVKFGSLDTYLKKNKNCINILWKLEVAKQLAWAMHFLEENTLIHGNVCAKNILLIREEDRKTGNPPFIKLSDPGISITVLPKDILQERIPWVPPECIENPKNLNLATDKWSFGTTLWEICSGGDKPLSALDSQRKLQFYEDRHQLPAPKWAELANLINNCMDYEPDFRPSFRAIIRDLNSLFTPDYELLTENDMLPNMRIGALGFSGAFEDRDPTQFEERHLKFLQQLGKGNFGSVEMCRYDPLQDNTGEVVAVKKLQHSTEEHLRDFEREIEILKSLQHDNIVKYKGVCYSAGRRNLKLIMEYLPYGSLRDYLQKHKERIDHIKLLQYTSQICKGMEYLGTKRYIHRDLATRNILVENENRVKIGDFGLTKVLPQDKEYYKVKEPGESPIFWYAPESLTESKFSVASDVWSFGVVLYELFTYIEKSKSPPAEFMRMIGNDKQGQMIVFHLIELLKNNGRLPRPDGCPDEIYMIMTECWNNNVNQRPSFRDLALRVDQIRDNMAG
Procedure, shortened: as §1

LKB1 = target: T2, LKB1 (Homo sapiens, UniProt Q15831); details: 100 μM compound, 20 μM ATP; read-out: Kinase activity, % of activity in the absence of inhibitor
T2 sequence (Q15831 1-433): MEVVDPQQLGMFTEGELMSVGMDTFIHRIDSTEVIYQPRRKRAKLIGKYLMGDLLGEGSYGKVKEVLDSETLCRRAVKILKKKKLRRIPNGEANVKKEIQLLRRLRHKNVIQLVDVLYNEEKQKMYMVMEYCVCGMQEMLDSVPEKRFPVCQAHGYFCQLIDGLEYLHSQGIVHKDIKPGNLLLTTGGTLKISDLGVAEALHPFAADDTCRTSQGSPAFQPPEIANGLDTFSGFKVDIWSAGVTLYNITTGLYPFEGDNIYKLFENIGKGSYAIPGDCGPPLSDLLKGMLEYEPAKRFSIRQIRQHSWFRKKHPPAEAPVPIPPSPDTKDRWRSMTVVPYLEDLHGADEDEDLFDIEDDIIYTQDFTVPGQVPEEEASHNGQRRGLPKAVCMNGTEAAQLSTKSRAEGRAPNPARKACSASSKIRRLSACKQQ
T2 sequence (Q7RTN6 1-431 partner): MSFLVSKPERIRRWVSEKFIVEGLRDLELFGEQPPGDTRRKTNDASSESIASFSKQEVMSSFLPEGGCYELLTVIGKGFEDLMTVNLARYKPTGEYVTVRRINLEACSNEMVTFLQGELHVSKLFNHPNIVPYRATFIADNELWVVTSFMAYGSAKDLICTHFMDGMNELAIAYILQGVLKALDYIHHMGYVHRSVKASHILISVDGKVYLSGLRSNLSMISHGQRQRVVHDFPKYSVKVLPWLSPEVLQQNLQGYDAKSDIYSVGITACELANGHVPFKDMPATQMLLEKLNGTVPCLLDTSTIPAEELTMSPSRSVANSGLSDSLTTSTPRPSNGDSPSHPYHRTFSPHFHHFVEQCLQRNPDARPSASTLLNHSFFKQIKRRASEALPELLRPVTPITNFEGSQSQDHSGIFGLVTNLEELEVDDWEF
T2 sequence (Q9Y376 1-341 partner): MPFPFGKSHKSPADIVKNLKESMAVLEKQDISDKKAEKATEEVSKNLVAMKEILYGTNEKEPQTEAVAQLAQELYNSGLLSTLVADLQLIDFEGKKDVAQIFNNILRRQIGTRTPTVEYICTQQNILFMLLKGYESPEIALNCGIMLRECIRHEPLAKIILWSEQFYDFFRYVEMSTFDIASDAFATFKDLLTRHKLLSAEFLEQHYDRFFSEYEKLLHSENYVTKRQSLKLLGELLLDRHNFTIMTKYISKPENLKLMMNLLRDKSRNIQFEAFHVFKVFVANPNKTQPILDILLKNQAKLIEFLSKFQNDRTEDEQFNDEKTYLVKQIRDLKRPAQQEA
Procedure, shortened: as §1

RIPK2 = RIPK2 (Homo sapiens, UniProt O43353); details: 100 μM compound, 20 μM ATP; read-out: Kinase activity, % of activity in the absence of inhibitor
RIPK2, sequence (O43353 whole entry): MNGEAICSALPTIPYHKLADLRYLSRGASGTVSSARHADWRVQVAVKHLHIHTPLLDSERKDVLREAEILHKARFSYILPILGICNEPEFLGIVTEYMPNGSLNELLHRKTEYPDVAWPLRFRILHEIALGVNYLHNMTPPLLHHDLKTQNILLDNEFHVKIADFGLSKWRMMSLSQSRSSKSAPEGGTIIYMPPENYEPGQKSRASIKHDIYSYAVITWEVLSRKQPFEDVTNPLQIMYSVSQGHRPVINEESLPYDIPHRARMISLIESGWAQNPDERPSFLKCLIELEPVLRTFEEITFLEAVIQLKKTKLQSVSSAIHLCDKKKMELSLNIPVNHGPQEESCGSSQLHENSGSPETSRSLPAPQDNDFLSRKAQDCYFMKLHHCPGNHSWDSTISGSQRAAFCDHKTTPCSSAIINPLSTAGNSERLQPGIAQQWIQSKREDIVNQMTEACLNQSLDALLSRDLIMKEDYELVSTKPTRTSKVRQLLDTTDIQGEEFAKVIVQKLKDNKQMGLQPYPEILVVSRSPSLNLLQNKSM
Procedure, shortened: as §1

RSK2 = RSK2 (Homo sapiens, UniProt P51812); details: 100 μM compound, 50 μM ATP; read-out: Kinase activity, % of activity in the absence of inhibitor
RSK2, sequence (P51812 whole entry): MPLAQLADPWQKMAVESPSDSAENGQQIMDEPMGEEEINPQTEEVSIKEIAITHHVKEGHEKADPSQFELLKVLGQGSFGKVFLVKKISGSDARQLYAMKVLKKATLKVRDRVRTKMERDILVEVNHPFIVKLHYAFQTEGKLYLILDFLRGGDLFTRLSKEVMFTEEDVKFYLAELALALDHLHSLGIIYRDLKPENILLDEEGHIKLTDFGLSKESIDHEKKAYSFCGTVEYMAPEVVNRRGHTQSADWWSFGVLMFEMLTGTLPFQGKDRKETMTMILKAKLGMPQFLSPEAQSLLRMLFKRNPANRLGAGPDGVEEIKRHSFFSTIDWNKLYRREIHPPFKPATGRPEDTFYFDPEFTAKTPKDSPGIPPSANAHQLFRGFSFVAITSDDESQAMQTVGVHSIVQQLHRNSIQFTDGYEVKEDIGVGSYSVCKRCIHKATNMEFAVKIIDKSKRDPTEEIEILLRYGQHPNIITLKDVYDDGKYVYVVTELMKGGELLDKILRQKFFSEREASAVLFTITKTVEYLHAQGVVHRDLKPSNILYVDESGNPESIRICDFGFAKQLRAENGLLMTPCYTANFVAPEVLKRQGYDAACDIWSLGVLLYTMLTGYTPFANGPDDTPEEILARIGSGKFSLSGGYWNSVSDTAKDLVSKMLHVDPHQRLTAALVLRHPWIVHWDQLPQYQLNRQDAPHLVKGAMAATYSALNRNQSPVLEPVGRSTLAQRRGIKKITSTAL
Procedure, shortened: as §1

## Nc1ncnc2c1ncn2C1OC(COP(=O)(O)OP(=O)(O)O)C(O)C1O (stereo not drawn) [ADP]
EPH-B4
  activity at 100 µM: 9.8%
JAK2
  activity at 100 µM: 7.1%
LKB1
  activity at 100 µM: 71%
RIPK2
  activity at 100 µM: 46%
RSK2
  activity at 100 µM: 47.9%

## CC(C)(COP(=O)(O)OP(=O)(O)OCC1OC(n2cnc3c(N)ncnc32)C(O)C1O)C(O)C(=O)NCCC(=O)NCCS (stereo not drawn) [dpCoA, dephospho-CoA]
EPH-B4
  activity at 100 µM: 62.1%
JAK2
  activity at 100 µM: 62.5%
LKB1
  activity at 100 µM: 81.1%
RIPK2
  activity at 100 µM: 88.4%
RSK2
  activity at 100 µM: 62.9%

## CC(C)(COP(=O)(O)OP(=O)(O)OC[C@H]1O[C@@H](n2cnc3c(N)ncnc32)[C@H](O)[C@@H]1OP(=O)(O)O)[C@@H](O)C(=O)NCCC(=O)NCCS [CoA, Coenzyme A]
EPH-B4
  activity at 100 µM: 107%
JAK2
  activity at 100 µM: 106%
LKB1
  activity at 100 µM: 103%
RIPK2
  activity at 100 µM: 131%
RSK2
  activity at 100 µM: 96.5%
